Laboratory results from article PMC9606171, “Synthetic PPAR Agonist DTMB Alleviates Alzheimer’s Disease Pathology by Inhibition of Chronic Microglial Inflammation in 5xFAD Mice” (Neurotherapeutics, 2022).

Tests used:
5xFAD mice = test: RT-qPCR of magnetically sorted adult microglia; type: in vivo; details: adult microglia sorted from 5xFAD mice
Experimental: DTMB was synthesized from Daejung Chemicals (Korea) and was dissolved in dimethyl sulfoxide (Sigma Aldrich, St. Louis, MO, USA) for cell-based experiments. To evaluate the effects of DTMB on 5xFAD mice, DTMB (10 mg/kg) and vehicle (1% carboxymethylcellulose and 10% DMSO) were orally administrated to four groups (wild-type, wild-type + DTMB, 5xFAD, and 5xFAD + DTMB) with a 6 day per week for 3 months.
To isolate the adult microglia from DTMB- or vehicle-treated 5xFAD mice brain, magnetic-activated cell sorting (MACs) system was used. Whole brain tissue was dissociated to a single cell level using gentleMACs dissociation kit (Miltenyi Biotech, Bergisch Gladbach, Germany) according to manufacturer’s instruction. To separate the immune cell fraction, 47% percoll gradient was applied to single cell mixture and centrifuged at 2,000 rpm for 10 min. Adult microglia was isolated by LS column after incubating with anti-CD11b MicroBeads (Miltenyi Biotech). Separated adult microglia were used to analyze the expression of genes related to microglia activation and inflammation by performing RT-PCR. Sample sizes were 3 mice per group.

primary microglia [1] = test: ELISA of proinflammatory cytokines, primary microglia; type: cell-based, mice; details: LPS or pre-aggregated human Aβ1-42, 24 h
Experimental: (§1) Primary microglia culture was conducted as described in a previous study. Mice at postnatal day 3 mice were used for the preparation of primary microglia. Newborn mice pups were anesthetized in ice and then sacrificed. Isolated cortex and hippocampus were collected after removing the meninges. Brain tissues were dissociated by incubating in HBSS (Gibco, Gaithersburg, MD, USA) with trypsin (2.5%) for 15 min. Cell homogenates were then incubated in M-CSF (20 ng/mL, R&D Systems) supplemented with DMEM-F12 medium with 10% fetal bovine serum, 10% horse serum, 1% GlutaMAX (Gibco, MD, USA), and 1% penicillin/streptomycin (Welgene, Korea). After 10 days, microglia were purified through shaking at 260 rpm for 2 h.
We measured cytokine level (TNF-α, IL-1β, and IL-6) in the media of LPS (1 μg/mL) and human Aβ1-42 (5 μg/mL)-treated BV2 microglia cells and primary microglia. Human Aβ1-42 (AnaSpec, Fremont, CA, USA) were pre-aggregated in the incubator for 24 h before the treatment to the cells. BV2 cells and primary microglia cells were seeded on 12-well plates (SPL) at a density of 1 × 10^5 cells/well cultured in 1 mL of complete media. After 12 h, LPS or human Aβ1-42 were treated to cells and were further incubated for 24 h with DTMB. […]

BV2 microglia cells = test: ELISA of proinflammatory cytokines, BV2 microglia cells; type: cell-based, mouse; details: LPS or pre-aggregated human Aβ1-42, 24 h
Experimental: We measured cytokine level (TNF-α, IL-1β, and IL-6) in the media of LPS (1 μg/mL) and human Aβ1-42 (5 μg/mL)-treated BV2 microglia cells and primary microglia. Human Aβ1-42 (AnaSpec, Fremont, CA, USA) were pre-aggregated in the incubator for 24 h before the treatment to the cells. BV2 cells and primary microglia cells were seeded on 12-well plates (SPL) at a density of 1 × 10^5 cells/well cultured in 1 mL of complete media. After 12 h, LPS or human Aβ1-42 were treated to cells and were further incubated for 24 h with DTMB. ELISA experiments were conducted by using mouse TNF-α ELISA kit (Invitrogen, BMS607-3TEN), mouse IL-1β ELISA kit (Invitrogen, BMS6002), and mouse IL-6 ELISA kit (Invitrogen, BMS603-2) according to the manufacturer’s instruction.

HMO6 cell line = test: Cell viability assay (MTT), HMO6; type: cell-based; details: 48 h
Experimental: (§2) Cell viability was measured by chromogenic assay involving the biological reduction of 3-(4,5-dimethyl-thiazol-2-yl)-2,5-diphenyltetrazoliumbromide (MTT) to formazan in living cells. Briefly, cells were seeded in 96-well plates in a final volume of 100 μL. After 24 h, the culture media were replaced with fresh media containing DTMB compounds, and the cells were cultured for another 48 h. Next, MTT (5 mg/mL in PBS) was added to the culture medium. The cells were incubated for 1 h in the dark at 37 °C, and the supernatant was then removed from the well. Total MTT solvent (4 mM HCl and 0.1% Nonidet P-40, both in isopropanol) was added to dissolve the formazan crystal, and absorbance was measured at 570 nm using a microplate reader Infinite 200 Pro NanoQuant microplate reader (TECAN, Switzerland).

PPARα = target: T1, PPARα (Homo sapiens, UniProt Q07869); test: Gal4-transactivation luciferase assay in HEK293A cells, PPARα LBD; type: cell-based
T1 construct: pcDNA5-GAL4-PPAR LBD, pG5-luc, and Rluc vector (as control) were transfected into HEK293A cells; expressed in transfected cells; host or cells: HEK293A
T1 sequence (Q07869 239-466 limits assumed): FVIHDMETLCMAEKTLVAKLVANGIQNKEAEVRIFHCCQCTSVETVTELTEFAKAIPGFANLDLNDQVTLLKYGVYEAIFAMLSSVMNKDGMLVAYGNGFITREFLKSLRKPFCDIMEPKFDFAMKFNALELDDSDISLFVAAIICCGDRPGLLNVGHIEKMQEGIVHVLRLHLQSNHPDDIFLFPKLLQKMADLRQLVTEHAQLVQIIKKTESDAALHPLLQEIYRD
Experimental: (§3) HEK293A cells were transfected with the GAL4-reporter plasmids and pGL4.74 (Promega, Madison, WI, USA) as an internal standard through electroporation using a Neon Transfection System (Invitrogen, Carlsbad, CA, USA). All vector materials were provided by Professor Yuichiro Kanno at Toho University. Cells were treated with DTMB and each positive control compound for 24 h after overnight incubation. Cells were then harvested and resuspended in luciferase lysis buffer (Promega), followed by incubation on ice for 10 min. Cell debris was removed by centrifugation at 20,000 × g at 4 °C for 10 min, and the supernatants were used for luciferase assay. Using a dual-luciferase reporter assay system (Promega), luciferase activities were measured according to the manufacturer’s instructions. Experimental firefly luciferase activities were normalized against those of Renilla luciferase.

PPARγ = target: T2, PPARγ (Homo sapiens, UniProt P37231); test: Gal4-transactivation luciferase assay in HEK293A cells, PPARγ LBD; type: cell-based
T2 construct: pcDNA5-GAL4-PPAR LBD, pG5-luc, and Rluc vector (as control) were transfected into HEK293A cells; expressed in transfected cells; host or cells: HEK293A
T2 sequence (P37231 238-503 limits assumed): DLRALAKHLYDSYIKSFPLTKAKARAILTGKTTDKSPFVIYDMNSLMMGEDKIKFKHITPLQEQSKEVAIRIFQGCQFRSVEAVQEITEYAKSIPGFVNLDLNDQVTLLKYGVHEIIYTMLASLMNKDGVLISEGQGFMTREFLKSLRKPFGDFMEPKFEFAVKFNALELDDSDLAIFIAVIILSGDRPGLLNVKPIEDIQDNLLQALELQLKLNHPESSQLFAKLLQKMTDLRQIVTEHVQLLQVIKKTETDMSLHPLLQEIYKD
Experimental: as §3

primary microglia [2] = test: Quantitative PCR of NF-κB target genes in primary microglia; type: cell-based, mice
Experimental: as §1
Total RNA was isolated using TRI Reagent (Molecular Research Center, Cincinnati, OH, USA). RNA was reverse transcribed using the ImProm-II™ Reverse Transcription System (Promega) according to the manufacturer’s instructions. For detection and quantification, a StepOnePlus Real-Time PCR System (Applied Biosystems, Foster City, CA, USA) was used with FastStart Universal SYBR Green Master (Roche, Basel, Switzerland). Real-time qPCR data were analyzed using the comparative CT method. Sample sizes were 10–15 mice per group.

RAW 264.7 = test: Cell viability assay (MTT), RAW 264.7; type: cell-based; details: 48 h
Experimental: as §2

[3] = HEK293A, 24 h, various concentrations

Q: Which results are given for `COc1ccc(-c2cc(=O)oc3c(C)c(OC(=O)[C@H](Cc4c[nH]c5ccccc45)NC(=O)OC(C)(C)C)ccc23)cc1` [DTMB]?
A: levels of microglial activation markers (Iba-1, Trem2, and Cd68) (5xFAD mice): markedly decreased; levels of proinflammatory cytokines (Tnf-α, Il-6, and Il-1β) (5xFAD mice): markedly decreased; level of cytokines (TNF-α, IL-1β, IL-6) induced by inflammatory signals (primary microglia [1]): dramatically reduced; level of cytokines (TNF-α, IL-1β, IL-6) induced by inflammatory signals (BV2 microglia cells): dramatically reduced; cytotoxicity (MTT) (HMO6 cell line): no cytotoxicity; relative luciferase activity (PPARα; [3]): increased luciferase activity; transactivation (luciferase activity) compared to positive control (PPARα; versus WY14643): stronger than the positive control; relative luciferase activity (PPARγ; [3]): increased luciferase activity; PPARγ transactivation (luciferase reporter activity) compared to positive control (PPARγ; versus positive control): lower than the positive controls; mRNA levels of NFκB (primary microglia [2]): no change; expression of NF-κB target genes Il-6, Il-1β, and Inos (primary microglia [2]; primary microglia, mRNA): decreased; expression of anti-inflammatory marker (Arg-1) (primary microglia [2]; primary microglia, mRNA): induced; cytotoxicity (MTT) (RAW 264.7): no cytotoxicity
